Assays:
STZ induced diabetic rat = experiment: Cataract onset in STZ induced diabetic rats, repeated instillation into both eyes; assay type: in vivo, Rats (Crj: Wistar); details: for number of onset eyes / onset of cataract (conclusion in words): Day 46; for number of onset eyes / onset rate (Day 46): instilled 10 μL per eye, 3 times a day, test substance 1 0.01 wt %, test substance 2 2 wt %; for number of onset eyes: onset eyes/total eyes; for onset of cataract (conclusion in words): STZ induced diabetic rats, instillation; for onset rate (Day 46): saline pathology group 100%
Method: Rats (Crj: Wistar, male, 5-week-old) were purchased, grouped after acclimation for 6 days, and fasted for 20 hr.
After the fasting, Streptosotocin (hereinafter STZ, 50 mg/kg (2 mL/kg)) was administered to the tail vein.
After 24 hr from the STZ administration, the blood glucose level was measured, and the rats with blood glucose level of not less than 250 mg/dL were considered as STZ induced diabetic rat (measurement tool: ACCU-CHEK Aviva, Roche Diagnostics K.K.) (group 2-group 4).
From the next day of the blood glucose level measurement, saline, test substance 1 and test substance 2 were repetitively instilled to groups 2-4 into both eyes (10 μL for each eye) 3 times a day (9:00, 13:00, 17:00). The cataract suppression rate of the test substance at the time point when the onset of the pathology model group 2 reached 100% (Day 46) was determined. Saline was repetitively instilled in the same manner to the group free of streptosotocin administration (group 1).
In addition, the day when the nuclear part of the crystalline lens became obviously opaque was taken as the cataract onset day.
cataract onset rate: (number of cataract onset eyes/total number of eyes ×100)

[1] = system: rats given powder feed with 30% of galactose; experiment: Cataract onset in rats fed 30% galactose feed, repeated oral administration; assay type: in vivo, Rats (Crj: Wistar)
Description: Rats (Crj: Wistar, male, 3-week-old) were purchased and, from the next day (Day 0), a mixture of a powder feed (CRF-1, Oriental Yeast Co., ltd.) and 30% of galactose (special grade, Wako Pure Chemical Industries, Ltd., Lot# 075-00035) was freely given. From Day 0, test substance 1 was repetitively administered orally.
dissolution liquid: 0.5% methylcellulose solution test substance 1: N-{4-[2-(4-hydrazinocarbonylmethylphenyl)ethyl]-1,3-thiazol-2-yl}acetamide (compound described in Production Example)

Row | SMILES | number of onset eyes (STZ induced diabetic rat) | onset of cataract (conclusion in words) (STZ induced diabetic rat) | onset rate (Day 46) (STZ induced diabetic rat) | number of onset eyes (Day 20) ([1]; Day 20, oral, 0.5 wt %, 2 mL/kg once per day, vehicle group 8/12 eyes) | onset of cataract (conclusion in words) ([1]; galactose-fed rats, oral administration, 20 days)
1 | CC(=O)Nc1nc(CCc2ccc(CC(=O)NN)cc2)cs1 [test substance 1, N-{4-[2-(4-hydrazinocarbonylmethylphenyl)ethyl]-1,3-thiazol-2-yl}acetamide] | 2/8 | suppress the onset of cataract | 25% | 3/12 eyes | suppresses the onset of cataract
2 | CC(=O)Nc1nc(CCc2ccc(CCNC(=N)N)cc2)cs1 [test substance 2, N-(4-{2-[4-(2-{[amino(imino)methyl]amino}ethyl)phenyl]ethyl}-1,3-thiazol-2-yl)acetamide] | 2/10 | suppress the onset of cataract | 20% |  | 

From patent US20100210697A1, “PHARMACEUTICAL COMPOSITION FOR TREATMENT OF CATARACT” (R-TECH UENO, LTD., priority 2007, published 2010)
